Reference: publication PMC6642015 (Cell chemical biology, 2019)
Where a chain is given by its changes, count along the chain named.

How the values were obtained:
Assay in all cases: isothermal titration calorimetry
Assay type in all cases: binding
[1] = molecular target: T1, human CblA (MMAA) (Homo sapiens, UniProt Q8IVH4, K276E); details: pH 7.5, 150 mM KCl, 2 mM MgCl2, 20 °C; one-site model
T1 sequence (Q8IVH4 66-418 K276E limits assumed): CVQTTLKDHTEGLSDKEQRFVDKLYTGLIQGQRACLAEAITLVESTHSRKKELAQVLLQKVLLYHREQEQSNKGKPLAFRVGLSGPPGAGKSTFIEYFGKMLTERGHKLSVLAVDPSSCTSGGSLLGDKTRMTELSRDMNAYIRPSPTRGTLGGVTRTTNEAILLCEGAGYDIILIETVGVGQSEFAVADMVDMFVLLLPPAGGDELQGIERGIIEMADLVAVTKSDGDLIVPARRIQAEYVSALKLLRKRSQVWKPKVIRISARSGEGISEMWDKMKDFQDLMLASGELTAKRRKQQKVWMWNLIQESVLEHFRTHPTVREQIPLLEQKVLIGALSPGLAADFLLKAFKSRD

[2] = molecular target: T2, human CblA (MMAA) (Homo sapiens, UniProt Q8IVH4, K276A); details: pH 7.5, 150 mM KCl, 2 mM MgCl2, 20 °C; one-site model
T2 sequence (Q8IVH4 66-418 K276A limits assumed): T1 sequence (Q8IVH4 66-418 K276E limits assumed) with E211A

[3] = molecular target: T3, human CblA (MMAA) (Homo sapiens, UniProt Q8IVH4)
T3 sequence (Q8IVH4 66-418 limits assumed): T1 sequence (Q8IVH4 66-418 K276E limits assumed) with E211K

[4] = molecular target: T4, human CblA (MMAA) (Homo sapiens, UniProt Q8IVH4, Q273A); details: pH 7.5, 150 mM KCl, 2 mM MgCl2, 20 °C; one-site model
T4 sequence (Q8IVH4 66-418 Q273A limits assumed): T1 sequence (Q8IVH4 66-418 K276E limits assumed) with Q208A, E211K

[5] = molecular target: T5, human CblA (MMAA) (Homo sapiens, UniProt Q8IVH4, G278D); details: pH 7.5, 150 mM KCl, 2 mM MgCl2, 20 °C; one-site model
T5 sequence (Q8IVH4 66-418 G278D limits assumed): T1 sequence (Q8IVH4 66-418 K276E limits assumed) with E211K, G213D

[6] = molecular target: T6, human CblA (MMAA) (Homo sapiens, UniProt Q8IVH4, G274S); details: pH 7.5, 150 mM KCl, 2 mM MgCl2, 20 °C; one-site model
T6 sequence (Q8IVH4 66-418 G274S limits assumed): T1 sequence (Q8IVH4 66-418 K276E limits assumed) with G209S, E211K

## Nc1nc2c(ncn2[C@@H]2O[C@H](COP(=O)(O)OP(=O)(O)O)[C@@H](O)[C@H]2O)c(=O)[nH]1 [GDP]
[1]
  KD: largely unaffected by switch III mutations (Table S1)
[2]
  KD: largely unaffected by switch III mutations (Table S1)
[3]
  Kd: 1100 ± 300 nM
[4]
  KD: largely unaffected by switch III mutations (Table S1)
[5]
  KD: largely unaffected by switch III mutations (Table S1)
[6]
  KD: largely unaffected by switch III mutations (Table S1)
